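Test compounds were applied to cells in 96-well plates for 48 hours at 5 doses. The concentration for 50% growth inhibition is given as GI50. TGI: total growth inhibition.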
Tests used:
Test in all cases: NCI anticancer screen, dose series, 48 h; in the data active = GI50 below about 0.43 µM; inactive = the rest
[1] = tested on: TK-10 renal
[2] = tested on: HT29 colon
[3] = tested on: MALME-3M melanoma
[4] = tested on: OVCAR-8 ovarian
[5] = tested on: SF-539 CNS
[6] = tested on: CAKI-1 renal
[7] = tested on: OVCAR-5 ovarian
[8] = tested on: SF-268 CNS
[9] = tested on: HOP-92 NSCLC
[10] = tested on: HOP-62 NSCLC

COc1ccc([Se]c2ccc(OC)cc2OC)c(OC)c1
16.3 µM: TGI [9]
> 100 µM: TGI [1] | TGI [3] | TGI [4] | TGI [5] | TGI [6] | TGI [7] | TGI [8]
29.7 µM: TGI [2]

O=C1c2ccccc2-c2cc3ccccc3c(=O)n21
> 100 µM: TGI [1] | TGI [2] | TGI [4] | TGI [5] | TGI [7] | TGI [8]

O=C(Cc1nc2ccc(C(=O)c3ccccc3)cc2[nH]c1=O)C(=O)Nc1ccccc1[N+](=O)[O-]
> 100 µM: TGI [1] | TGI [2] | TGI [3] | TGI [4] | TGI [5] | TGI [6] | TGI [7] | TGI [8] | TGI [9]

c1ccc(SCCCC(Sc2ccccc2)Sc2ccccc2)cc1
> 100 µM: TGI [1] | TGI [4] | TGI [10] | TGI [5] | TGI [6] | TGI [8] | TGI [9]

N#CC1c2ccccc2-c2ccccc2N1C(=O)c1ccccc1 (centres undefined)
7.05 µM: TGI [5]
inactive: GI50 [1] 1.23 µM | GI50 [2] 1100 nM | GI50 [3] 1220 nM | GI50 [4] 3.63 µM | GI50 [10] 4.46 µM | GI50 [5] 2290 nM | GI50 [7] 5.37 µM | GI50 [8] 3.03 µM | GI50 [9] 2420 nM
19.9 µM: TGI [9]
> 25.3 µM: TGI [2]
23.4 µM: TGI [8]
54.2 µM: TGI [3]
> 100 µM: TGI [10] | TGI [7]
28.2 µM: TGI [1]
96.9 µM: TGI [4]

CC1OC(=O)N(CCCC=C2SCCCS2)C1=O (centres undefined)
> 100 µM: TGI [1] | TGI [2] | TGI [3] | TGI [4] | TGI [5] | TGI [7] | TGI [8] | TGI [9]

c1ccc2c(c1)CCCc1cc3ccccc3nc1-2
> 100 µM: TGI [1] | TGI [2] | TGI [3] | TGI [4] | TGI [10] | TGI [5] | TGI [6] | TGI [7] | TGI [8]

COC(=O)C12CC(C3CC31)C1CC12 (centres undefined)
> 100 µM: TGI [1] | TGI [2] | TGI [3] | TGI [4] | TGI [10] | TGI [6] | TGI [7] | TGI [8] | TGI [9]

O=C1C=C(Nc2cccc(Br)c2)c2ccccc2C1=O
> 100 µM: TGI [2] | TGI [6] | TGI [8]
4.56 µM: TGI [5]
26.1 µM: TGI [10]
93.4 µM: TGI [4]
inactive: GI50 [2] 69100 nM | GI50 [4] 18.6 µM | GI50 [10] 2.29 µM | GI50 [5] 1930 nM | GI50 [6] 4.16 µM | GI50 [7] 14.5 µM | GI50 [8] 9.01 µM
34.3 µM: TGI [7]

CN1CCCC1c1cccnc1.O=C(O)c1ccccc1O.O=C([O-])c1ccccc1[OH2+].O=C([O-])c1ccccc1[OH2+].O=C([O-])c1ccccc1[OH2+].[Mn+2] (centres undefined)
52.2 µM: TGI [3]
73.4 µM: TGI [8]
> 100 µM: TGI [1] | TGI [2] | TGI [4] | TGI [10] | TGI [6] | TGI [7] | TGI [9]
inactive: GI50 [1] > 100 µM | GI50 [2] > 100000 nM | GI50 [3] 17800 nM | GI50 [4] > 100 µM | GI50 [10] > 100 µM | GI50 [6] > 100 µM | GI50 [7] 63.5 µM | GI50 [8] 22.3 µM | GI50 [9] > 100000 nM

COC(=O)/C(C#N)=C1\N=NNN1CCCN1CCOCC1
> 100 µM: TGI [1] | TGI [2] | TGI [3] | TGI [4] | TGI [5] | TGI [6] | TGI [9]

O=C(Oc1c(I)ccccc1=O)c1ccc([N+](=O)[O-])cc1
65.1 µM: TGI [4]
55.1 µM: TGI [6]
30.7 µM: TGI [3]
37.6 µM: TGI [5]
> 100 µM: TGI [1] | TGI [10] | TGI [7]
24.8 µM: TGI [2]
39.8 µM: TGI [8]

Cc1ccc(NCSc2ccc(Cl)cc2)cc1
> 100 µM: TGI [1] | TGI [2] | TGI [3] | TGI [4] | TGI [10] | TGI [5] | TGI [6] | TGI [7] | TGI [8]
inactive: GI50 [1] 51.8 µM | GI50 [2] > 100000 nM | GI50 [3] > 100000 nM | GI50 [4] > 100 µM | GI50 [10] 30.7 µM | GI50 [5] 22900 nM | GI50 [6] 5.51 µM | GI50 [7] > 100 µM | GI50 [8] 13.1 µM

Brc1ccc2c(c1)C1(c3cc(Br)ccc3-2)c2cc(Br)ccc2-c2ccc(Br)cc21
> 100 µM: TGI [1] | TGI [2] | TGI [3] | TGI [4] | TGI [10] | TGI [5] | TGI [6] | TGI [7] | TGI [8]

Cc1nnc([S-])s1.[Au+].c1ccc([PH+](c2ccccc2)c2ccccc2)cc1
3 µM: TGI [3] | TGI [5] | TGI [6]
inactive: GI50 [1] 1.83 µM | GI50 [3] 1590 nM | GI50 [5] 1630 nM | GI50 [6] 1.64 µM | GI50 [7] 1.7 µM | GI50 [9] 1820 nM
3.32 µM: TGI [1]
3.13 µM: TGI [7]
3.24 µM: TGI [9]

O=C1CCC2(CCC(=O)NC2=O)C(=O)N1
> 100 µM: TGI [1] | TGI [2] | TGI [3] | TGI [4] | TGI [10] | TGI [5] | TGI [8]

COc1ccc(C2=CC(c3cc(OC)c(OC)c(OC)c3)n3ncnc3N2)cc1 (centres undefined)
25.2 µM: TGI [10]
11.2 µM: TGI [2]
inactive: GI50 [1] 13 µM | GI50 [7] 0.502 µM | GI50 [9] 11300 nM
active: GI50 [2] 38.1 nM | GI50 [4] 0.0763 µM | GI50 [10] 0.0588 µM | GI50 [8] 0.0833 µM
37.3 µM: TGI [9]
31.7 µM: TGI [1]
> 100 µM: TGI [7]
21.6 µM: TGI [4]
29.7 µM: TGI [8]

CO[C@H]1C=C[C@]23c4cc5c(cc4CN(CC2O)[C@@H]3C1)OCO5 (some centres undefined)
20.4 µM: TGI [3]
> 100 µM: TGI [1] | TGI [6] | TGI [7]
14.6 µM: TGI [5]
32.7 µM: TGI [8]
39.7 µM: TGI [2]
38.5 µM: TGI [4]
2.74 µM: TGI [9]

Cc1cc(N(CCC#N)S(=O)(=O)c2ccccc2)ccc1C=O
> 100 µM: TGI [2] | TGI [3] | TGI [4] | TGI [10] | TGI [5] | TGI [6] | TGI [7] | TGI [8]

Cc1ccc([P+](Cc2ccc([N+](=O)[O-])cc2)(c2ccc(C)cc2)c2ccc(C)cc2)cc1
47.1 µM: TGI [6]
12.8 µM: TGI [2]
inactive: GI50 [2] 2510 nM | GI50 [4] 2.96 µM | GI50 [10] 10.4 µM | GI50 [5] 4060 nM | GI50 [6] 18 µM | GI50 [7] 6.68 µM | GI50 [8] 3.45 µM
15.9 µM: TGI [5]
13 µM: TGI [4]
23.8 µM: TGI [10]
14 µM: TGI [8]
23.3 µM: TGI [7]

From PubChem BioAssay (NCI)
